Measurements reported in ChEMBL document CHEMBL1201862, “PubChem BioAssay data set” (2004).
The source made the active and inactive calls. For most assays here, no stated cut-off is given here; in the data, actives have a measured EC50 and inactives only a lower limit.

How the values were obtained:
Cytochrome P450 1A2 = molecular target: T1, Cytochrome P450 1A2 (Homo sapiens, UniProt P05177);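 further: PubChem cytochrome P450 panel assay, CYP1A2 panel member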
T1 sequence (P05177 whole entry): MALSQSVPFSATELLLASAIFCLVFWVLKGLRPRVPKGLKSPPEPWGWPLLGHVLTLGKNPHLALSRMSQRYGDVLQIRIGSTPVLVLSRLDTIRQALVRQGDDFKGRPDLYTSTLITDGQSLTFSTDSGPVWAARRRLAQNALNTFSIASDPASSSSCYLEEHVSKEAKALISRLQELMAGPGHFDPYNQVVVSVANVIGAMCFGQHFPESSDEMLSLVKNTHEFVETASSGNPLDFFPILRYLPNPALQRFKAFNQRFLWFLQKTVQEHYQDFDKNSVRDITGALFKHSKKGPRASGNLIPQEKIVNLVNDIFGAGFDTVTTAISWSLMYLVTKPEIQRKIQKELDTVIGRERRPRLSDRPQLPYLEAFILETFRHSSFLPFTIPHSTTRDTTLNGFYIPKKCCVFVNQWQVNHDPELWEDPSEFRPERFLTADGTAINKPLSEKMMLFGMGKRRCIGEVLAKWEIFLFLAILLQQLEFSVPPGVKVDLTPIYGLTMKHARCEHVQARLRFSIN

[1] = inhibitors of intracellular T. cruzi replication, confirmation, NIH3T3 host cells, beta-gal luminescence (AID 2044); type: functional, cell-based;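 further: intracellular parasites grown in NIH/3T3 mouse fibroblasts as host cells; luminescent beta-galactosidase reporter signal from transgenic T. cruzi replicating inside host cells; inhibitors lower the luminescence signal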
[2] = cytotoxicity toward NIH3T3 fibroblasts, dose response, counter-screen, cell-based, ATP luminescence, mouse fibroblasts (AID 2010); type: functional;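 further: cells exposed to compound for about 90 hours before reading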
[3] = Luminescence Cell-Based Dose Retest to Confirm Inhibitors of Cancer Stem Cells. [Related pubchem assays (depositor defined):AID2717, AID2721]; type: functional; details: Homo sapiens
[4] = system: Streptococcus sp. 'group A'; test: growth inhibition of control SK(-) GAS strain, dose response, counter-screen for streptokinase expression inhibitor project, luminescence, kanamycin, BacTiterGlo, confirmation (AID 1900); type: functional, organism-based
Streptokinase A = molecular target: T2, Streptokinase A (Streptococcus pyogenes serotype M1, UniProt P10520); test: S. pyogenes streptokinase expression inhibitors, potency, dose response, plasminogen activation absorbance, OD405 (AID 1914); type: functional, Streptococcus pyogenes M1 GAS;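 further: secreted streptokinase activity via plasminogen activation per viability signal from cell pellet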
T2 sequence (P10520 whole entry): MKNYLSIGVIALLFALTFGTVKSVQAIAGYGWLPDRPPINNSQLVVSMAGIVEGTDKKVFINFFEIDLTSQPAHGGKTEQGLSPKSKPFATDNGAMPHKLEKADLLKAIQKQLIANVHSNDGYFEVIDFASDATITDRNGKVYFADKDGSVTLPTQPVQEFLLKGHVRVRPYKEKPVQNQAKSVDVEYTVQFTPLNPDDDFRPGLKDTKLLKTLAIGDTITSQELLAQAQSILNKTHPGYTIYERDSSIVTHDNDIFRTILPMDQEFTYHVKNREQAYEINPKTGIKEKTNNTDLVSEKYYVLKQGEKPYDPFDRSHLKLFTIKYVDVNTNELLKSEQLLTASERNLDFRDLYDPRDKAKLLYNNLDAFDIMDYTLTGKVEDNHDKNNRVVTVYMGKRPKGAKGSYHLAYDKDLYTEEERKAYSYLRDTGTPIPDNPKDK

Streptococcus = test: Group A Streptococcus viability loss, dose response, counter-screen for streptokinase expression inhibitor project, luminescence, BacTiterGlo (AID 1915); type: functional, organism-based;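 further: potency for reduction of bacterial viability or growth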
[5] = Luminescence Cell-Based Dose Response HTS to Identify Activators of Luciferase Translation or Activity in H4 […] Cells. [Related pubchem assays: 1829 (Project Summary), 1814 (Primary HTS)]; type: functional
H4 = test: Luminescence Cell-Based Dose Response HTS to Identify Activators of 5'UTR Stem-Loop Driven Prion Protein mRNA Translation in H4 Neuroglioblastoma Cells. [Related pubchem assays: 1829 (Project Summary), 1814 (Primary HTS)]; type: functional; details: Homo sapiens
Cytochrome P450 2C9 = Cytochrome P450 2C9 (Homo sapiens, UniProt P11712)
Cytochrome P450 2C9, sequence (P11712 whole entry): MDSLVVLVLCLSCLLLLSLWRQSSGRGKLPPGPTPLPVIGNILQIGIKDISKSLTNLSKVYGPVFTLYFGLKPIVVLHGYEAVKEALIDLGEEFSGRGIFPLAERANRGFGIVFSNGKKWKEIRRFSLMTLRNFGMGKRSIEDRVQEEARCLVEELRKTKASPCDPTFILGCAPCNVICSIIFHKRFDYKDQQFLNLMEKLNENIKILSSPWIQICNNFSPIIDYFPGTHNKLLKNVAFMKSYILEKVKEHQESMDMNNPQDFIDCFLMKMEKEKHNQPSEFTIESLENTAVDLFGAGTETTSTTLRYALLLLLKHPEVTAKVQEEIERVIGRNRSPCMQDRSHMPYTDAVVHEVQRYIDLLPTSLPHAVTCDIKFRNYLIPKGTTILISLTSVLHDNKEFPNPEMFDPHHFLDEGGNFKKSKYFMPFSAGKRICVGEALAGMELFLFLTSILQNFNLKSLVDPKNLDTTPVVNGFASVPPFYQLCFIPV

CCSc1nnc(NC(=O)COc2ccc3ccccc3c2)s1
AC50 (Cytochrome P450 1A2): 10 µM (inconclusive)

CN1CCc2c(sc(NC(=O)c3cc4cc([N+](=O)[O-])ccc4s3)c2C(N)=O)C1
EC50 [1]: 1.73 µM (active)
EC50 [2]: 14.3 µM (active)

COc1ccc(OCC(=O)Nc2ccc(Cl)cc2C(=O)c2ccccc2)cc1
AC50 (Cytochrome P450 1A2): 3.55 µM (inconclusive)

CC(C)(C)c1ccc(Cn2nnc3c(O)nc(C4CCCN(C(=O)c5cccs5)C4)nc32)cc1 (stereo not drawn)
AC50 [3]: 10.6 µM (active)

CC(C)(C)c1ccc(C(=O)NCc2nnc(SCC(=O)NC3CCCC3)o2)cc1
EC50 [4]: > 150 µM (not active)
EC50 (Streptokinase A): > 150 µM (inconclusive)
EC50 (Streptococcus): > 150 µM (not active)

COc1ccc(Nc2nc(NC(C)(C)C)nc(N3CCOCC3)n2)c(OC)c1
EC50 [1]: 1.59 µM (active)
EC50 [2]: > 60 µM (not active)

O=S(=O)(O)c1cc(/N=N\c2cccc3ccccc23)c(O)c2ncccc12
AC50 (Cytochrome P450 1A2): 0.631 µM (inconclusive)

CCOC(=O)c1ccc(NC(=S)N(Cc2cccnc2)Cc2ccco2)cc1
EC50 [1]: 0.631 µM (active)
EC50 [2]: > 60 µM (not active)

COc1ccccc1NC(=O)NCCCCc1ccccc1
EC50 [4]: > 150 µM (not active)
EC50 (Streptokinase A): > 150 µM (not active)
EC50 (Streptococcus): > 150 µM (not active)

CC(=O)c1c(C)[nH]c(C(=O)Nc2nccs2)c1C
EC50 [5]: > 120 µM (not active)
EC50 (H4): > 120 µM (not active)

Nc1ccc(-c2ccc(N)cc2C(F)(F)F)c(C(F)(F)F)c1
EC50 [4]: 31 µM (active)
EC50 (Streptokinase A): 76.8 µM (active)
EC50 (Streptococcus): > 150 µM (not active)

O=C(COc1ccccc1)Nc1cccc(-c2nc3ccccc3[nH]2)c1
EC50 [4]: 22.7 µM (active)
EC50 (Streptokinase A): > 150 µM (not active)
EC50 (Streptococcus): > 150 µM (not active)

O=C(CC(NS(=O)(=O)c1ccc(Cl)cc1)c1ccco1)NCc1ccco1 (stereo not drawn)
AC50 (Cytochrome P450 1A2): 25.1 µM (inconclusive)

O=C(c1cc(COc2cccc3cnccc23)on1)N1CCC(c2ccccc2Cl)C1 (stereo not drawn)
EC50 [1]: 1.57 µM (active)
EC50 [2]: > 60 µM (not active)

O=C(c1ccncc1)N1CCC2(CCCN(c3cccc(-c4ccccc4)c3)C2)CC1
AC50 (Cytochrome P450 1A2): 12.6 µM (inconclusive)

Cc1cc(C)cc(NC(S)=NCCSc2ccc(Cl)cc2)c1
EC50 [4]: 11.8 µM (active)
EC50 (Streptokinase A): 15.9 µM (active)
EC50 (Streptococcus): > 150 µM (not active)

Cc1c([N+](=O)[O-])nnn1-c1cc(Cl)cc(Cl)c1
EC50 [1]: 1.86 µM (active)
EC50 [2]: > 30 µM (not active)

Cc1cc(C)c(-c2csc(NC(=O)COC(=O)c3ccc4c(c3)OCO4)n2)c(C)c1
EC50 [1]: 4.69 µM (active)
EC50 [2]: > 60 µM (not active)

CN(C)Cc1nc2ccccc2c(=O)n1Cc1nc(-c2cc3ccccc3o2)cs1
EC50 [4]: 10.4 µM (active)
EC50 (Streptokinase A): 104 µM (active)
EC50 [1]: 2.57 µM (active)
EC50 [2]: > 30 µM (not active)
EC50 (Streptococcus): > 150 µM (not active)

Cc1cccc(-c2nnc(SCc3ccccc3)o2)c1
AC50 (Cytochrome P450 2C9): 39.8 µM (inconclusive)

O=c1n(-c2ccc(Br)cc2)cnn1-c1ncccc1[N+](=O)[O-]
EC50 [5]: 2.9 µM (active)
EC50 (H4): 17.3 µM (active)

O=c1[nH]c2cc3c(cc2cc1CN(CCc1ccccc1)Cc1nnnn1CC1CCCO1)OCO3 (stereo not drawn)
EC50 (Streptokinase A): > 150 µM (not active)

Oc1nc2cc3c(cc2cc1CN(CCc1ccccc1)Cc1nnnn1CC1CCCO1)OCO3 (stereo not drawn)
EC50 [4]: > 150 µM (not active)
EC50 (Streptococcus): > 150 µM (not active)

COc1ccc(C2c3ccsc3CCN2C(=O)C(C)(C)C)cc1 (stereo not drawn)
EC50 [4]: > 150 µM (not active)
EC50 (Streptokinase A): > 150 µM (not active)
EC50 (Streptococcus): > 150 µM (not active)

Cc1ccc2nc(N(CCCN(C)C)C(=O)c3ccc(Br)s3)sc2c1
EC50 [1]: 0.102 µM (active)
EC50 [2]: > 60 µM (not active)

COC(=O)c1c(NC(=O)c2ccc(C)c(S(=O)(=O)Nc3ccccc3C)c2)sc2c1CCCC2
AC50 [3]: 0.875 µM (active)

Cc1cc2occ(CC(=O)NC3=NCCS3)c2cc1C(C)C
EC50 [4]: 71.7 µM (active)
EC50 (Streptokinase A): > 150 µM (not active)
EC50 (Streptococcus): > 150 µM (not active)

O=[N+]([O-])c1ccc(N2CCN(S(=O)(=O)c3ccc(Cl)cc3)CC2)cc1NCc1cccnc1
EC50 [1]: 1.38 µM (active)
EC50 [2]: 15.4 µM (active)

Cc1ccc(C(=O)N2CCCC(CCC(=O)NCc3ccccc3F)C2)cn1 (stereo not drawn)
EC50 [4]: > 150 µM (not active)
EC50 (Streptokinase A): > 150 µM (not active)
EC50 (Streptococcus): > 150 µM (not active)

c1ccc(N2CCN(c3nc4cc5c(cc4s3)OCCO5)CC2)cc1
EC50 (H4): 46 µM (inconclusive)

CCOC(=O)N1CCN(c2cc(N3CCN(CC)CC3)c(F)cc2[N+](=O)[O-])CC1C (stereo not drawn)
EC50 [1]: 0.184 µM (active)
EC50 [2]: > 60 µM (inconclusive)

FC(F)(F)c1cc(-c2ccc(Cl)cc2)nc(NCc2cccnc2)n1
EC50 [1]: 1.01 µM (active)
EC50 [2]: > 60 µM (not active)
AC50 [3]: 7.33 µM (active)

O=c1c(Cl)c(NCc2ccccc2)cnn1C12CC3CC(CC(C3)C1)C2
AC50 [3]: 1.16 µM (active)

O=C(Nc1cccc(NC(=O)c2cccnc2)c1)c1ccccc1
EC50 [4]: > 150 µM (not active)
EC50 (Streptokinase A): > 150 µM (not active)
EC50 (Streptococcus): > 150 µM (not active)

Cc1ccc(C)c(-c2csc(N)c2C(=O)OC(C)C)c1
EC50 [4]: 9.04 µM (active)
EC50 (Streptokinase A): 17 µM (active)
EC50 (Streptococcus): > 150 µM (not active)
AC50 [3]: 6.66 µM (active)

COc1cccc(-c2nnc(NC(=O)c3ccc(S(=O)(=O)N4CC(C)OC(C)C4)cc3)o2)c1 (stereo not drawn)
EC50 [4]: 1.3 µM (active)
EC50 (Streptococcus): 2.15 µM (active)

Cc1c(Cl)cnn1CC(=O)NC1C(=O)N2C(C(=O)O)=C(CSc3nnnn3C)CSC12 (stereo not drawn)
EC50 [4]: 0.1 µM (active)
EC50 (Streptococcus): 0.283 µM (active)

OC(COCC(F)(F)C(F)(F)C(F)(F)C(F)F)Cn1c2ccc(Cl)cc2c2cc(Cl)ccc21 (stereo not drawn)
EC50 [4]: 2.2 µM (active)
EC50 (Streptococcus): 2.62 µM (active)

COc1ccccc1CN1CC[C@@]2(CCCN(C(=O)c3cc(C(F)(F)F)cc(C(F)(F)F)c3)C2)C1
AC50 (Cytochrome P450 1A2): 15.8 µM (inconclusive)

COCCNC(=O)CN(C(=O)CCC(=O)Nc1ccccn1)c1ccc(C)cc1
AC50 [3]: > 195 µM (inactive)

CCSc1nc2nc(C)cc(C)n2n1
AC50 (Cytochrome P450 1A2): 12.6 µM (inconclusive)

O=S(=O)(Nc1ccc(-c2nnc(SCc3ccc(Cl)cc3)o2)cc1)c1ccccc1
AC50 [3]: 3.31 µM (active)

Cc1ccc(-n2c(SCC(=O)c3c(N)n(C)c(=O)n(C)c3=O)nc3sc4c(c3c2=O)CCCC4)c(C)c1
EC50 [1]: 2.1 µM (active)
EC50 [2]: 50.5 µM (active)

CCOc1ccccc1CN1CCN(Cc2[nH]c3ccccc3c2C)CC1CCO (stereo not drawn)
EC50 [1]: 0.204 µM (active)
EC50 [2]: > 60 µM (not active)

CCC[C@]12CN3C[C@](CCC)(CN(C1)C3c1ccccn1)C2=O (stereo partly drawn)
EC50 [4]: 43.8 µM (active)
EC50 (Streptococcus): > 150 µM (not active)

COc1cc(/C=C(/C#N)c2ccc(C)cc2)ccc1Oc1ccc([N+](=O)[O-])cn1
EC50 [1]: 1.54 µM (active)
EC50 [2]: > 60 µM (not active)

OCCCNc1[nH]cnc2nncc1-2
AC50 (Cytochrome P450 1A2): 6.31 µM (inconclusive)

CC1=C/C(=N\NC(=S)NCc2ccccc2)CC1
EC50 [1]: 2.88 µM (active)
EC50 [2]: > 60 µM (not active)

CCCCC(C=O)NC(=O)C(CC(C)C)NC(=O)OCc1ccccc1 (stereo not drawn)
AC50 (Cytochrome P450 1A2): 31.6 µM (inconclusive)

CCCOc1ccc(/C=N/Nc2cccc([N+](=O)[O-])c2)c(O)c1
AC50 [3]: 1.76 µM (active)

CCn1c(SCC(=O)N/N=C/C=C\c2ccccc2[N+](=O)[O-])nnc1-c1ccccc1
AC50 (Cytochrome P450 1A2): 28.2 µM (inconclusive)

N#CC1=C(N)OC2=C(C(=O)CC(c3ccccc3)C2)C1c1cccnc1 (stereo not drawn)
EC50 [1]: 0.111 µM (active)
EC50 [2]: > 30 µM (not active)

O=C(Nc1ccccc1)Nc1ccc(-n2ccc(C(F)(F)F)n2)cc1
EC50 [5]: 0.648 µM (active)
EC50 (H4): > 120 µM (not active)

CN(C)CCCN1c2ccccc2C(C)(C)c2ccccc21 [DIMETACRINE]
AC50 (Cytochrome P450 1A2): 5.01 µM (inconclusive)
